Assay: Serum stability in murine serum (HPLC)
Type: in vitro ADME, mouse
Conditions: 48 h
Experimental: Serum stability of prodrugs was analyzed using a modified method from previously published work. Chu et al., 2012. Prodrug stock solution (8 μL, 10 mM) was incubated with 100% mouse serum (final concentration of the serum was 80% after the mixing with prodrug solution) at 37° C. Aliquots (50 μL) were periodically removed at 2, 4, 8, 24, and 48 h, and diluted with cold ice CH3OH (100 μL) to precipitate proteins. The samples were centrifuged, and the supernatants were analyzed by HPLC. Stability was calculated based on the peak area of the prodrug at each time point. Experiments were performed in triplicate.

CC[C@H](C)[C@@H](C(CC(=O)N1CCC[C@H]1[C@H](OC)[C@@H](C)C(=O)N[C@H](C)[C@@H](O)c1ccccc1)OC)N(C)C(=O)[C@@H](NC(=O)[C@H](C(C)C)N(C)C(=O)CC[C@H](NC(=O)CCCCCCC(=O)NCCCC[C@H](NC(=O)N[C@@H](CCC(=O)O)C(=O)O)C(=O)O)C(=O)O)C(C)C (stereo partly drawn) [SBPD-2, (4S,7S,10S,15S,30S,34S)-4-((S)-Sec-butyl)-3-(2-((S)-2-((1R,2R)-3-(((1S,2R)-1-hydroxy-1-phenylpropan-2-yl)amino)-1-methoxy-2-methyl-3-oxopropyl)pyrrolidin-1-yl)-2-oxoethyl)-7,10-diisopropyl-5,11-dimethyl-6,9,12,17,24,32-hexaoxo-2-oxa-5,8,11,16,25,31,33-heptaazahexatriacontane-15,30,34,36-tetracarboxylic acid]
remained intact: 90%

— patent US20230414762A1, “PROSTATE-SPECIFIC MEMBRANE ANTIGEN (PSMA)-TARGETED PRODRUG FOR SELECTIVE KILLING OF CELLS […]” (The Johns Hopkins University, priority 2020, published 2023)
